≈ marks a conversion by molar mass, not a printed value. Counter-ions that a name gives are not always drawn. Like-named read-outs stand apart in the source and are kept apart here.
What was measured:
[1] = test system: SF-295; test: Human cancer cell line growth inhibition, CNS SF-295; details: for TGI: total growth inhibition
[2] = test system: P388; test: Murine lymphocytic leukemia P388 cell line inhibition
[3] = test system: KM20L2; test: Human cancer cell line growth inhibition, colon KM20L2; details: for TGI: total growth inhibition
[4] = test system: Ovcar-3; test: Human cancer cell line growth inhibition, ovarian Ovcar-3; details: for TGI: total growth inhibition
[5] = test system: DU-145; test: Human cancer cell line growth inhibition, prostate DU-145; details: for TGI: total growth inhibition
[6] = test system: BXPC-3; test: Human cancer cell line growth inhibition, pancreas-a BXPC-3; details: for TGI: total growth inhibition
[7] = test system: NCI-H460; test: Human cancer cell line growth inhibition, lung-NSC NCI-H460; details: for TGI: total growth inhibition

| SMILES | TGI ([1]; CNS SF-295) [µg/mL] | GI50 ([1]; Homo sapiens, SF-295) [µg/mL] | ED50 ([2]; Murine leukemia P388) [µg/mL] | TGI ([3]; Colon KM20L2) [µg/mL] | GI50 ([3]; Homo sapiens, KM-20L2) [µg/mL] | GI50 ([4]; Homo sapiens, OVCAR-3) [µg/mL] | TGI ([4]; Ovarian Ovcar-3) [µg/mL] | GI50 ([5]; Homo sapiens, DU-145) [µg/mL] | TGI ([5]; Prostate DU-145) [µg/mL] | GI50 ([6]; Homo sapiens, BXPC-3) [µg/mL] | TGI ([6]; Pancreas-a BXPC-3) [µg/mL] | GI50 ([7]; Homo sapiens, NCI-H460) [µg/mL] | TGI ([7]; Lung-NSC NCI-H460) [µg/mL] | GI50 ([1]; CNS SF-295) [µg/mL] | GI50 ([3]; Colon KM20L2) [µg/mL] | GI50 ([4]; Ovarian Ovcar-3) [µg/mL] | GI50 ([5]; Prostate DU-145) [µg/mL] | GI50 ([6]; Pancreas-a BXPC-3) [µg/mL] | GI50 ([7]; Lung-NSC NCI-H460) [µg/mL] | ED50 [2] [µg/mL] |
| --- | --- | --- | --- | --- | --- | --- | --- | --- | --- | --- | --- | --- | --- | --- | --- | --- | --- | --- | --- | --- |
| O=C1N[C@H]2[C@H](O)[C@H](O)[C@@H](O)[C@H](O)[C@@H]2c2cc3c(c(O)c21)OCO3 [Compound 1a, (+)-Pancratistatin] | 0.091 (≈ 0.28 µM) | 0.017 (≈ 0.0523 µM) | 0.032 (≈ 0.0984 µM) | 0.23 (≈ 0.707 µM) | 0.026 (≈ 0.0799 µM) | 0.032 (≈ 0.0984 µM) | 0.11 (≈ 0.338 µM) | 0.016 (≈ 0.0492 µM) | 0.1 (≈ 0.307 µM) | 0.028 (≈ 0.0861 µM) | 0.14 (≈ 0.43 µM) | 0.048 (≈ 0.148 µM) | 0.43 (≈ 1.32 µM) |  |  |  |  |  |  |  |
| O=C1N[C@@H]2C(=C[C@H](O)[C@@H](O)[C@H]2O)c2cc3c(c(O)c21)OCO3 [Compound 2, (+)-narciclasine, reference compound] | 0.049 (≈ 0.159 µM) |  | 0.0044 (≈ 0.0143 µM) | 0.012 (≈ 0.0391 µM) |  |  | 0.044 (≈ 0.143 µM) |  | 0.036 (≈ 0.117 µM) |  | 0.045 (≈ 0.146 µM) |  | 0.1 (≈ 0.325 µM) | 0.012 (≈ 0.0391 µM) | 0.018 (≈ 0.0586 µM) | 0.016 (≈ 0.0521 µM) | 0.0071 (≈ 0.0231 µM) | 0.016 (≈ 0.0521 µM) | 0.022 (≈ 0.0716 µM) |  |
| CC1(C)O[C@@H]2[C@H](O1)[C@@H](O)C=C1c3cc4c(c(O)c3C(=O)N[C@H]12)OCO4 [Compound 3, Narciclasine 3,4-acetonide] | >10 | > 10 | >10 | >10 | > 10 | > 10 | >10 | > 10 | >10 | > 10 | >10 | > 10 | >10 |  |  |  |  |  |  |  |
| CC(=O)Oc1c2c(cc3c1C(=O)NC1C3=CC(OC(C)=O)C3OC(C)(C)OC13)OCO2 (stereo not shown) [Compound 4, 2,7-Di-acetoxy-narciclasine 3,4-acetonide] | >10 |  | >10 | >10 |  |  | >10 |  | >10 |  | >10 |  | >10 | >10 | >10 | >10 | >10 | >10 | >10 |  |
| CC(=O)OC1C=C2c3cc4c(c(O)c3C(=O)NC2C2OC(C)(C)OC12)OCO4 (stereo not shown) [Compound 5, 2-Acetoxy-narciclasine 3,4-acetonide] | >10 |  | >10 | >10 |  |  | >10 |  | >10 |  | >10 |  | >10 | >10 | >10 | >10 | >10 | >10 | >10 |  |
| CC(=O)Oc1c2c(cc3c1C(=O)NC1C4OC(C)(C)OC4C(OC(C)=O)C4OC314)OCO2 (stereo not drawn) [Compound 6, 1,10b-α-epoxy-2,7-diacetoxy-narciclasine 3,4-acetonide] | >10 |  | >10 | >10 |  |  | >10 |  | >10 |  | >10 |  | >10 | >10 | >10 | >10 | >10 | >10 | >10 |  |
| COC1c2c([nH]c(=O)c3c(O)c4c(cc23)OCO4)C2OC(C)(C)OC2C1O (stereo not shown) [Compound 7, 1-Methoxy-Isonarciclasine 3,4-acetonide] | >10 |  | >10 | >10 |  |  | >10 |  | >10 |  | >10 |  | >10 | >10 | >10 | >10 | >10 | >10 | >10 |  |
| CC1(C)O[C@@H]2[C@@H](O)[C@@H](O)[C@@H]3c4cc5c(c(O)c4C(=O)N[C@H]3[C@@H]2O1)OCO5 [Compound 8, 1-Isopancratistatin 3,4-acetonide] | >10 | 7.2 (≈ 19.7 µM) | 2.6 (≈ 7.12 µM) | >10 | 6.9 (≈ 18.9 µM) | 5 (≈ 13.7 µM) | >10 | 3.8 (≈ 10.4 µM) | >10 | 8.8 (≈ 24.1 µM) | >10 | > 10 | >10 |  |  |  |  |  |  |  |
| CC1(C)O[C@@H]2[C@@H](O)[C@@H](O)[C@H]3c4cc5c(c(O)c4C(=O)N[C@H]3[C@@H]2O1)OCO5 [Compound 9, B/C Cis-1-Isopancratistatin 3,4-acetonide] | >10 |  | >10 | >10 |  |  | >10 |  | >10 |  | >10 |  | >10 | >10 | >10 | >10 | >10 | >10 | >10 |  |
| CC1(C)O[C@@H]2[C@@H](O)[C@H]3OC34c3cc5c(c(O)c3C(=O)N[C@H]4[C@@H]2O1)OCO5 (stereo partly drawn) [Compound 10, 1,10b-α-epoxy-narciclasine 3,4-acetonide] | >10 | > 10 | >10 | >10 | > 10 | > 10 | >10 | > 10 | >10 | > 10 | >10 | > 10 | >10 |  |  |  |  |  |  |  |
| CC1(C)O[C@H]2[C@@H]3NC(=O)c4c(cc5c(c4O)OCO5)[C@H]3C3OS(=O)(=O)O[C@@H]3[C@H]2O1 (stereo partly shown) [Compound 12, 1-Isopancratistatin 1,2 Cyclic Sulfate-3,4-acetonide] | >10 | > 10 | >10 | >10 | > 10 | > 10 | >10 | > 10 | >10 | > 10 | >10 | > 10 | >10 |  |  |  |  |  |  |  |
| O=C(OC1C(O)C(O)C(O)C2NC(=O)c3c(cc4c(c3O)OCO4)C21)c1ccccc1 (stereo not shown) [Compound 13, Pancratistatin 1-Benzoate] | 0.0049 (≈ 0.0114 µM) |  |  | 0.0034 (≈ 0.00792 µM) |  |  | 0.0019 (≈ 0.00442 µM) |  | 0.0026 (≈ 0.00606 µM) |  | 0.0053 (≈ 0.0123 µM) |  |  | 0.0013 (≈ 0.00303 µM) | <0.001 | <0.001 |  | 0.00094 (≈ 0.00219 µM) | <0.001 | 0.0017 (≈ 0.00396 µM) |
